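Abbreviation: GI50, concentration required for 50% inhibition of growth. TGI: total growth inhibition.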
Experiments:
Test in all cases: DTP human tumour cell line panel, 384-well format
OVCAR-5 ovarian = system: OVCAR-5 ovarian
SW-620 colon = system: SW-620 colon
MDA-MB-435 melanoma = system: MDA-MB-435 melanoma
UO-31 renal = system: UO-31 renal
NCI-H23 lung = system: NCI-H23 lung
SK-MEL-28 melanoma = system: SK-MEL-28 melanoma
SN12C renal = system: SN12C renal
SNB-75 CNS = system: SNB-75 CNS
SR leukemia = system: SR leukemia
SNB-19 CNS = system: SNB-19 CNS
HS 578T breast = system: HS 578T breast
SK-MEL-2 melanoma = system: SK-MEL-2 melanoma
A498 renal = system: A498 renal
OVCAR-3 ovarian = system: OVCAR-3 ovarian
MALME-3M melanoma = system: MALME-3M melanoma
NCI/ADR-RES ovarian = system: NCI/ADR-RES ovarian
NCI-H460 NSCLC = system: NCI-H460 NSCLC
CCRF-CEM leukemia = system: CCRF-CEM leukemia
PC-3 prostate = system: PC-3 prostate
IGROV1 ovarian = system: IGROV1 ovarian
EKVX NSCLC = system: EKVX NSCLC
HCC-2998 colon = system: HCC-2998 colon
SK-OV-3 ovarian = system: SK-OV-3 ovarian
RXF 393 renal = system: RXF 393 renal
DU-145 prostate = system: DU-145 prostate
MDA-MB-231 breast = system: MDA-MB-231 breast
TK-10 renal = system: TK-10 renal
HOP-62 NSCLC = system: HOP-62 NSCLC
UACC-257 melanoma = system: UACC-257 melanoma
MDA-MB-468 breast = system: MDA-MB-468 breast
BT-549 breast = system: BT-549 breast
HCT-116 colon = system: HCT-116 colon
ACHN renal = system: ACHN renal
CAKI-1 renal = system: CAKI-1 renal
HT29 colon = system: HT29 colon
HCT-15 colon = system: HCT-15 colon
MOLT-4 leukemia = system: MOLT-4 leukemia
NCI-H322M lung = system: NCI-H322M lung
LOX IMVI melanoma = system: LOX IMVI melanoma
NCI-H522 lung = system: NCI-H522 lung
SF-295 CNS = system: SF-295 CNS
RPMI-8226 leukemia = system: RPMI-8226 leukemia
OVCAR-4 ovarian = system: OVCAR-4 ovarian
U251 glioblastoma = system: U251 glioblastoma
SK-MEL-5 melanoma = system: SK-MEL-5 melanoma
HOP-92 NSCLC = system: HOP-92 NSCLC
A549 NSCLC = system: A549 NSCLC
786-0 renal = system: 786-0 renal
NCI-H226 lung = system: NCI-H226 lung
HL-60(TB) leukemia = system: HL-60(TB) leukemia
K-562 leukemia = system: K-562 leukemia
COLO 205 colon = system: COLO 205 colon
T-47D breast = system: T-47D breast
SF-268 CNS = system: SF-268 CNS
M14 melanoma = system: M14 melanoma
SF-539 CNS = system: SF-539 CNS
MCF7 breast = system: MCF7 breast
UACC-62 melanoma = system: UACC-62 melanoma
KM12 colon = system: KM12 colon

## CN1CCN(c2ccc3nc(-c4c5cccccc-5[nH]c4=O)[nH]c3c2)CC1
OVCAR-5 ovarian
  GI50: 10.5 µM
  TGI: 33.4 µM
SW-620 colon
  GI50: 6.59 µM
  TGI: 24.9 µM
MDA-MB-435 melanoma
  GI50: 11.9 µM
  TGI: 31.9 µM
UO-31 renal
  GI50: 6.3 µM
  TGI: 19.2 µM
NCI-H23 lung
  GI50: 7.46 µM
  TGI: 26.8 µM
SK-MEL-28 melanoma
  GI50: 15.9 µM
  TGI: 35 µM
SN12C renal
  GI50: 3.39 µM
  TGI: 17.8 µM
SNB-75 CNS
  GI50: 3.71 µM
  TGI: 17.6 µM
SR leukemia
  GI50: 2.17 µM
  TGI: 4.45 µM
SNB-19 CNS
  GI50: 10.3 µM
  TGI: 39.2 µM
HS 578T breast
  GI50: 4.73 µM
  TGI: 18.4 µM
SK-MEL-2 melanoma
  GI50: 28.6 µM
  TGI: 44.4 µM
A498 renal
  GI50: 12.7 µM
  TGI: 26.3 µM
OVCAR-3 ovarian
  GI50: 12.3 µM
  TGI: 28.2 µM
MALME-3M melanoma
  GI50: 11 µM
  TGI: 23.1 µM
NCI/ADR-RES ovarian
  GI50: 16.7 µM
  TGI: 47.1 µM
NCI-H460 NSCLC
  GI50: 3.65 µM
  TGI: 13.8 µM
CCRF-CEM leukemia
  GI50: 3.47 µM
  TGI: 10.7 µM
PC-3 prostate
  GI50: 6.81 µM
  TGI: 25.3 µM
IGROV1 ovarian
  GI50: 3.84 µM
  TGI: 15.6 µM
EKVX NSCLC
  GI50: 10.1 µM
  TGI: 33.3 µM
HCC-2998 colon
  GI50: 7.05 µM
  TGI: 29.1 µM
SK-OV-3 ovarian
  GI50: 5.76 µM
  TGI: 23.7 µM
RXF 393 renal
  GI50: 2.7 µM
  TGI: 8.68 µM
DU-145 prostate
  GI50: 6.01 µM
  TGI: 26.7 µM
MDA-MB-231 breast
  GI50: 5.78 µM
  TGI: 22.1 µM
TK-10 renal
  GI50: 4.51 µM
  TGI: 19.3 µM
HOP-62 NSCLC
  GI50: 4.43 µM
  TGI: 20.9 µM
UACC-257 melanoma
  GI50: 9.05 µM
  TGI: 21.4 µM
MDA-MB-468 breast
  GI50: 5.61 µM
  TGI: 21 µM
BT-549 breast
  GI50: 4.48 µM
  TGI: 14.6 µM
HCT-116 colon
  GI50: 12.1 µM
  TGI: 25.3 µM
ACHN renal
  GI50: 4.63 µM
  TGI: 16.8 µM
CAKI-1 renal
  GI50: 5.23 µM
  TGI: 18.2 µM
HT29 colon
  GI50: 6.92 µM
  TGI: 23.9 µM
HCT-15 colon
  GI50: 7.04 µM
  TGI: 26.4 µM
MOLT-4 leukemia
  GI50: 1.8 µM
  TGI: 3.2 µM
NCI-H322M lung
  GI50: 10.4 µM
  TGI: 33.6 µM
LOX IMVI melanoma
  GI50: 10.7 µM
  TGI: 22.7 µM
NCI-H522 lung
  GI50: 9.06 µM
  TGI: 29.6 µM
SF-295 CNS
  GI50: 12.2 µM
  TGI: 32 µM
RPMI-8226 leukemia
  GI50: 10 µM
  TGI: 21.7 µM
OVCAR-4 ovarian
  GI50: 10.3 µM
  TGI: 38.6 µM
U251 glioblastoma
  GI50: 5.62 µM
  TGI: 22.2 µM
SK-MEL-5 melanoma
  GI50: 8.18 µM
  TGI: 21 µM
HOP-92 NSCLC
  GI50: 3.99 µM
  TGI: 16.7 µM
A549 NSCLC
  GI50: 6.49 µM
  TGI: 38.1 µM
786-0 renal
  GI50: 7.07 µM
  TGI: 28.1 µM
NCI-H226 lung
  GI50: 4.07 µM
  TGI: 18 µM
HL-60(TB) leukemia
  GI50: 3.83 µM
  TGI: 12.4 µM
K-562 leukemia
  GI50: 4.85 µM
  TGI: 16.7 µM
COLO 205 colon
  GI50: 5.27 µM
  TGI: 17.7 µM
T-47D breast
  GI50: 16.9 µM
  TGI: 37.9 µM
SF-268 CNS
  GI50: 10.3 µM
  TGI: 31.8 µM
M14 melanoma
  GI50: 9.46 µM
  TGI: 21.4 µM
SF-539 CNS
  GI50: 3.66 µM
  TGI: 13.2 µM
MCF7 breast
  GI50: 7.26 µM
  TGI: 21.3 µM
UACC-62 melanoma
  GI50: 8.99 µM
  TGI: 21.2 µM
KM12 colon
  GI50: 0.371 µM
  TGI: 10.7 µM
